Assay results published in patent US20250319073A1, “COMPOSITIONS AND METHODS FOR THE TREATMENT OF HUNTINGTON’S DISEASE AND HTT PROTEINOPATHIES” (priority 2022, published 2025).

Assays:
R6/2 mice = experiment: Rotarod test in R6/2 mice; type: in vivo, mouse; conditions: 5 mg/kg i.p. QD, 10 weeks of age, p<0.05, One-way ANOVA
Procedure: Study Summary—A total of 46 male R6/2 mice and 15 male wild-type littermate control mice (WT) were used in the study. The mice were genotyped and the R6/2 mice were divided into different treatment groups based on their pre-treatment body weight. The treatment with Compound (Ia) (0.5 or 5 mg/kg; 10 ml/kg, intraperitoneally (i.p.), QD) or Vehicle (10 ml/kg, i.p., QD) was started at 4 weeks of age. Body weights were measured before the treatment onset and continued twice a week until the end of the study. Fine motor kinematic analysis and rotarod test were performed at 10 weeks of age and the open field activity and clasping behavior were measured at 12 weeks of age for all mice. At 8 and 12 weeks of age the glucose uptake was measured by ^18F-FDG PET and the striatal metabolites were measured using MR spectroscopy for 9-10 mice per group. At 13 weeks of age 9-10 mice per group were subjected to tissue sample collection, and the brain and blood samples were collected. The blood samples were used to prepare peripheral blood mononuclear cells (PBMCs) on which the flow cytometry/luminescence analysis was performed for following assays: mitochondrial reactive oxygen species (ROS) (MitoSox), and ATP levels (Cell TiterGlow). […]
Rotarod Test—At 10 weeks of age all mice were subjected to rotarod test. […] The latency to fall from the rod was recorded.

[1] = test system: Peripheral Blood Mononuclear Cells (PBMC); experiment: CellTiter-Glo 2.0 ATP level assay in PBMCs of treated mice; type: in vivo, mouse; conditions: R6/2 mice, 0.5 mg/kg / 5 mg/kg i.p. QD, PBMCs collected at 13 weeks of age
Procedure: Euthanasia & Sample Collection—At 13 weeks of age, 9 mice per group were euthanized by deep anesthesia with sodium pentobarbital (180 mg/kg). The remaining mice were euthanized and any samples were not collected, except the tail and ear samples. A terminal blood sample (as much as possible) was collected by cardiac puncture into a syringe. The whole blood was placed in Li-Hep tube at RT and used immediately for preparation of PBMCs. The whole brain was collected and fresh frozen in liquid nitrogen and stored at −80° C. Blood was collected also from extra animals as staining controls for the flow cytometry assays (n=3 extra animals per day). […]
PBMC Extraction—Whole blood (approximately 400-500 μL) was stored at room temperature (RT) before the start of the PBMC isolations. […] Right before measurement 1 μL of propidium iodide was added and the cell number and viability was determined by MACSquant Analyzer 10 flow cytometer. […]
The cells were analyzed immediately after the staining using the MACSQuant Analyzer 10 (Miltenyi Biotec) and Cytation 3 (Cell titerglow). […]
ATP Levels: CellTiter-Glo 2.0® Assay—The CellTiter-Glo® 2.0 Assay provides a homogeneous method to determine the number of viable cells in culture by quantitating the amount of ATP present, which indicates the presence of metabolically active cells. […]
• 1. […] Place 50,000 cells/well white walled luminescence suitable plate in DPBS. • 3. […]

**Q.** What does the source list for `Cc1cc(O)cc(C)c1C[C@H](NC(=O)[C@H](N)CCCNC(=N)N)C(=O)N[C@@H](CCCCN)c1nc(Cc2ccccc2)no1.Cl.Cl` [Compound (Ia), (R)-2-amino-N—((S)-1-(((S)-5-amino-1-(3-benzyl-1,2,4-oxadiazol-5-yl)pentyl)amino)-3-(4-hydroxy-2,6-dimethylphenyl)-1-oxopropan-2-yl)-5-guanidinopentanamide]?
**A.** latency to fall in rotarod compared to vehicle treated R6/2 mice (R6/2 mice): increased latency; ATP levels (Cell Titer Glow) in PBMCs, R6/2+Vehicle vs treated R6/2 [1]: no significant differences
